Measurements reported in patent US20240316038A1, “APOL1 INHIBITORS AND METHODS OF USE” (Maze Therapeutics, Inc., priority 2021, published 2024).

Experiments:
APOL1 G2 [1] = molecular target: T1, APOL1 G2 (Homo sapiens, UniProt O14791, DEL388-389); test: APOL1 calcium transport inhibition assay (GCaMP6f calcium influx, FLIPR) in HEK T-REx/GCaMP6f/APOL1 G2 K6.3 cells; format: cell-based; conditions: inhibition of APOL1-mediated calcium influx; geometric mean of at least 2 assay runs, † = single assay run (technical duplicate)
T1 construct: expressed in transfected cells; host or cells: HEK293 T-REx clonal lines: HEK T-REx/GCaMP6f/APOL1 G2 K6.3 in A1, HEK293/T-REx APOL1 G2/clone #2 in A2
T1 sequence (O14791 with tags, fused parts or gaps DEL388-389): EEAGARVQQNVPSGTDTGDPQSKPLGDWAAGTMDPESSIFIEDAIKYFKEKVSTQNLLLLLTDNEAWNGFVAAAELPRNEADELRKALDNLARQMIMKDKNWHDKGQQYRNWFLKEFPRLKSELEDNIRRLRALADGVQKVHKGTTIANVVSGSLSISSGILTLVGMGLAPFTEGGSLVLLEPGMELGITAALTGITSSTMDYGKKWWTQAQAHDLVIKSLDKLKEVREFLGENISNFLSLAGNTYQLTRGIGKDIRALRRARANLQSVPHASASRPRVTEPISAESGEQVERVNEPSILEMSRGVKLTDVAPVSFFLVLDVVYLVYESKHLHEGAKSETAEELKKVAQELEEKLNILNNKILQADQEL
Experimental: A HEK293 clonal cell line was generated to stably express GCaMP6f, a genetically encoded calcium indicator, and inducibly express APOL1 G2 (HEK T-REx/GCaMP6f/APOL1 G2 K6.3). Cells were maintained in the following standard complete medium: DMEM with 4.5 g/L glucose and sodium pyruvate (BioWhittaker, Lonza, BE12-614F), supplemented with 10% FBS Performance Plus (Gibco, 16000044), 1% penicillin-streptomycin (BioWhittaker, DE17-602E), 2 mM ultraglutamine-1 (BioWhittaker cat. BE 17-605/U1), 50 μg/mL Zeocin (InvivoGen, ant-zn), 2.5 μg/mL Blasticidin (InvivoGen, ant-bl-5), and 25 μg/mL Hygromycin (InvivoGen, ant-hg). Standard propagation conditions consisted of plating 9×10^6, 4×10^6, 2×10^6 cells in a T225 flasks to be processed after 2, 3, or 4 days, respectively.
A source plate was generated containing 20 serially diluted compounds in DMSO (duplicate 8-point dose response). Next, 0.8 μL of compounds were transferred from the source plate to a destination plate prefilled with 79.2 μL of Ca^2+ free Tyrode's buffer (130 mM NaCl, 5 mM KCl, 1 mM MgCl2, 5 mM NaHCO3, 20 mM HEPES at pH 7.4). The destination plate was placed on a plate shaker (5 seconds at 2000 rpm) to mix. […] All transfer and mixing steps were conducted with an CyBi®-Well dispenser.
Cells were split by gently washing with DPBS (Euroclone, ECB4004L), followed by a 5-minute incubation (humidified, 37° C. with 5% CO2) with trypsin-EDTA solution (Euroclone, ECB3052D). Detached cells were diluted with standard complete medium without selective agents, counted, and plated in a 384 MTP microplate (GR4332CPL, Twin Helix) (10,000 cells/well in 25 μl/well) using a MATRIX WellMate dispenser. Plates were placed into a humidified incubator (37° C. with 5% CO2) overnight. The following day, 20 μL of doxycycline (Sigma, D9891) at 20 ng/mL in standard complete medium was added to cells with a CyBi @Drop dispenser to induce APOL1 G2 expression. After a 6-hour incubation (humidified, 37° C. with 5% CO2), cells were washed 3 times with Ca^2+ free Tyrode's Buffer (130 mM NaCl, 5 mM KCl, 1 mM MgCl2, 5 mM NaHCO3, 20 mM HEPES at pH 7.4) using a BIOTEK Microplate washer, such that 10 μL of buffer remained in each well after the final wash. Assay plates were then stored at room temperature for 10 minutes. Next, 10 μL of diluted compounds were transferred to the assay plate from the 2× compound plate using a CyBi®-Well dispenser. Compound incubation was then carried out at room temperature for 10 minutes. The assay plate was transferred to the […] and 20 μL of 10 mM Ca^2+ (final concentration=5 mM) Tyrode's buffer was injected.
Table B1 below summarizes the data from this experiment. Unless otherwise specified, AC50 and values are reported as the geometric mean of at least 2 assay runs on separate days. Each run represents the average of a technical replicate, where each compound was assayed twice in the same plate. A superscript † symbol indicates a value from the average of a technical replicate from a single assay run, where each compound was assayed twice in the same plate.
The AC50 values in Table B1 below reflect the compound's ability to prevent calcium influx by inhibiting APOL1. […] Compounds in Table B1 are referred to by the corresponding Compound Number in Table 1, which is also referred to in the synthetic examples. When one or more of the numbered compounds are identified by stereochemistry (for example, (R)- or (S)—), the specific stereoisomer for which data is provided in Table B1 may be identified by the elution order of such compound as described in the synthetic examples. To illustrate, Compound 2 is the first-eluting enantiomer of step 4 of Example 1 and Compound 3 is the second-eluting enantiomer of step 4 of Example 1. Further, by way of illustration, Compound 27 is the first-eluting enantiomeric mixture in step 4 of Example 7 and Compound 28 is the second-eluting enantiomeric mixture in step 4 of Example 7. […]

APOL1 G2 [2] = molecular target: T1, APOL1 G2; test: Rescue of HEK293 cell death caused by overexpression of APOL1 (CellTiter-Glo luminescence), HEK293/T-REx APOL1 G2/clone #2; format: cell-based; conditions: reversal of cell death caused by overexpression of APOL1; geometric mean of at least 2 assay runs, † = single assay run (technical duplicate)
Experimental: A HEK293 clonal cell line overexpressing APOL1 G2 (HEK293/T-REx APOL1 G2/clone #2) was maintained in 1×DMEM-GlutaMax (Gibco, 10569-010) media with 10% tetracycline-free FBS (Takara Bio USA, 631101), 5 μg/mL Blasticidin (Gibco, A1113903), and 100 μg/mL Zeocin (Invitrogen, R25001) in T75 flasks. In preparation for the assay, this media was aspirated and 2 mL of prewarmed TrypLE Express (Gibco, 12605-010) was added to a flask to detach cells. The flask was then incubated (humidified, 37° C. with 5% CO2) for 3-5 minutes. Afterwards, 8 mL of prewarmed cell assay media (lx DMEM-GlutaMax media with 10% tetracycline-free FBS) was added to the trypsinized cells. The suspension was gently mixed, and cells were counted using a Countess Cell Counting Chamber (Invitrogen). The suspension was diluted using cell assay media to generate a working stock solution (166,667 cells/mL). Using a MultiDrop Combi (Thermo Electron Corp), 30 μL (final cell density=5,000 cells/well) of the working stock solution was dispensed into each well of white 384-well assay ready plates (Nunc™, 164610) containing 6 ng/mL doxycycline, to induce APOL1 expression, and compound. All compounds were plated in a duplicate 8-point dilution series that consisted of 3-fold stepwise dilutions (0.5% DMSO final). Assay plates were incubated (humidified, 37° C. with 5% CO2) for 17 hours. After the incubation, the plates were equilibrated at room temperature for 1 hour. Next, 15 μl of CellTiter-Glo® reagent (Promega, G7570) was added to each well using a MultiDrop Combi. Plates were placed on an orbital shaker (500 rpm) for 5 minutes to induce cell lysis and then incubated at room temperature for 10 minutes. Luminescence was measured on an Envision plate reader. Collaborative Drug Discovery software was utilized for graphing data. Plots were generated using a four parameter logistic curve fit.
Table B2 below provides the results from this experiment. Unless otherwise specified, EC50 values are reported as the geometric mean of at least 2 assay runs on separate days. Each run represents the average of a technical replicate, where each compound was assayed twice in the same plate. A superscript t symbol indicates a value from the average of a technical replicate from a single assay run, where each compound was assayed twice in the same plate. Compounds in Table B2 are referred to by the corresponding Compound Number in Table 1, which is also referred to in the synthetic examples. When one or more of the numbered compounds are identified by stereochemistry (for example, (R)- or (S)—), the specific stereoisomer for which data is provided in Table B2 may be identified by the elution order of such compound as described in the synthetic examples. To illustrate, Compound 2 is the first-eluting enantiomer of step 4 of Example 1 and Compound 3 is the second-eluting enantiomer of step 4 of Example 1. Further, by way of illustration, Compound 27 is the first-eluting enantiomeric mixture in step 4 of Example 7 and Compound 28 is the second-eluting enantiomeric mixture in step 4 of Example 7. Then, Compound 27 is separated into Compound 29 (the first-eluting enantiomer) and Compound 30 (the second-eluting enantiomer) in Example 8, and Compound 28 is separated into Compound 31 (the first-eluting enantiomer) and Compound 32 (the second-eluting enantiomer) in Example 8. Absolute stereochemistry of such compounds may be identified by methods known in the art.
Rescue EC50 values reported in Table B2 below represent the half-maximal effective concentration for reversal of cell death caused by overexpression of APOL1.

CN(c1ccc(OCC2CCCN(CCc3cccc(Cl)c3)C2)cc1)S(C)(=O)=O (single isomer, unassigned) [Compound 8, (S) or (R)—N-(4-((1-(3-chlorophenethyl)piperidin-3-yl)methoxy)phenyl)-N-methylmethanesulfonamide]
AC50 (APOL1 G2 [1]): 266 nM
EC50 (APOL1 G2 [2]): 132 nM

CN(c1ccc(OCC2CCCN(CCc3cccc(Cl)c3)C2)cc1)S(C)(=O)=O (single isomer, unassigned) [Compound 9, (R) or (S)—N-(4-((1-(3-chlorophenethyl)piperidin-3-yl)methoxy)phenyl)-N-methylmethanesulfonamide]
AC50 (APOL1 G2 [1]): 151 nM
EC50 (APOL1 G2 [2]): 263 nM

CN(c1ccc(OCC2CN(CCc3cccc(Cl)c3)CCCO2)cc1)S(C)(=O)=O (single isomer, unassigned) [Compound 11, (R) or (S)-N-(4-((4-(3-chlorophenethyl)-1,4-oxazepan-2-yl)methoxy)phenyl)-N-methylmethane-sulfonamide]
AC50 (APOL1 G2 [1]): 1190 nM
EC50 (APOL1 G2 [2]): 1000 nM

CN(c1ccc(OCC2CN(CCc3cccc(Cl)c3)CCCO2)cc1)S(C)(=O)=O (single isomer, unassigned) [Compound 12, (S) or (R)-N-(4-((4-(3-chlorophenethyl)-1,4-oxazepan-2-yl)methoxy)phenyl)-N-methylmethane-sulfonamide]
AC50 (APOL1 G2 [1]): 2390 nM
EC50 (APOL1 G2 [2]): 3000 nM

CS(=O)(=O)c1ccc(OC[C@H]2CCCN(CC(O)c3cccc(Cl)c3)C2)cc1 (single isomer, unassigned) [Compound 18, (R) or (S)-1-(3-chlorophenyl)-2-((S)-3-((4-(methylsulfonyl)phenoxy)methyl)piperidin-1-yl)ethan-1-ol]
AC50 (APOL1 G2 [1]): 5730 nM
EC50 (APOL1 G2 [2]): 6320 nM

CS(=O)(=O)c1ccc(OC[C@H]2CCCN(CC(O)c3cccc(Cl)c3)C2)cc1 (single isomer, unassigned) [Compound 19, (S) or (R)-1-(3-chlorophenyl)-2-((S)-3-((4-(methylsulfonyl)phenoxy)methyl)piperidin-1-yl)ethan-1-ol]
AC50 (APOL1 G2 [1]): 480 nM
EC50 (APOL1 G2 [2]): 374 nM

CS(=O)(=O)c1ccc(OC[C@@H]2CCCN(CC(O)c3cccc(Cl)c3)C2)cc1 (single isomer, unassigned) [Compound 21, (R) or (S)-1-(3-chlorophenyl)-2-((R)-3-((4-(methylsulfonyl)phenoxy)methyl)piperidin-1-yl)ethanol]
AC50 (APOL1 G2 [1]): 623 nM
EC50 (APOL1 G2 [2]): 1020 nM

CS(=O)(=O)c1ccc(OC[C@@H]2CCCN(CC(O)c3cccc(Cl)c3)C2)cc1 (single isomer, unassigned) [Compound 22, (S) or (R)-1-(3-chlorophenyl)-2-((R)-3-((4-(methylsulfonyl)phenoxy)methyl)piperidin-1-yl)ethanol]
AC50 (APOL1 G2 [1]): 6410 nM
EC50 (APOL1 G2 [2]): 6590 nM

COC(CN1CCC[C@H](COc2ccc(S(C)(=O)=O)cc2)C1)c1cccc(Cl)c1 (single isomer, unassigned) [Compound 23, (S)-1-((R)-2-(3-chlorophenyl)-2-methoxyethyl)-3-((4-(methylsulfonyl)phenoxy)methyl)piperidine or (S)-1-((S)-2-(3-chlorophenyl)-2-methoxyethyl)-3-((4-(methylsulfonyl)phenoxy)methyl)piperidine]
AC50 (APOL1 G2 [1]): 640 nM
EC50 (APOL1 G2 [2]): 677 nM

COC(CN1CCC[C@H](COc2ccc(S(C)(=O)=O)cc2)C1)c1cccc(Cl)c1 (single isomer, unassigned) [Compound 24, (S)-1-((S)-2-(3-chlorophenyl)-2-methoxyethyl)-3-((4-(methylsulfonyl)phenoxy)methyl)piperidine or (S)-1-((R)-2-(3-chlorophenyl)-2-methoxyethyl)-3-((4-(methylsulfonyl)phenoxy)methyl)piperidine]
AC50 (APOL1 G2 [1]): 501 nM
EC50 (APOL1 G2 [2]): 334 nM
